In ChEMBL document CHEMBL3885861, “Open TG-GATES”:

Species: Rattus norvegicus
Test: Open TG-GATES - Regimen: Daily Repeat
Format: toxicity, organism-based, Sprague-Dawley
Parameters: regimen Daily Repeat, gender Male, age 6 weeks
Settings: in vivo, po, route gavage; for Ht / Lym / MCHC / Mono / Neu / Plat / RBC / Ret / WBC / Bas / Eos / Fbg / Hb / PT / MCV: tissue Blood; for KIDNEY_L / KIDNEY_R / KIDNEY_TOTAL: tissue Kidney; for ALP / ALT / AST / BUN / CRE / Ca / DBIL / IP / K / Na / PL / RALB / TBIL / TC / TG / TP / gamma-GTP / LDH: tissue Plasma; for LIVER: tissue Liver
[1] = 120 mg/kg, 72 h, dose level Middle, time 3 day
[2] = 120 mg/kg, […], dose level Middle, time 7 day
[3] = 120 mg/kg, […], dose level Middle, time 14 day
[4] = 120 mg/kg, […], dose level Middle, time 28 day
[5] = 400 mg/kg, 72 h, dose level High, time 3 day
[6] = 400 mg/kg, […], dose level High, time 7 day
[7] = 400 mg/kg, […], dose level High, time 14 day
[8] = 400 mg/kg, […], dose level High, time 28 day

CCC(C)(C)C(=O)O[C@H]1C[C@@H](C)C=C2C=C[C@H](C)[C@H](CC[C@@H]3C[C@@H](O)CC(=O)O3)[C@H]21 [SIMVASTATIN]
Ht [1]: 41% | Lym [1]: 80.2% | MCHC [1]: 33.2% | Mono [1]: 8.4% | Neu [1]: 10.2% | Plat [1]: 119.9 x10_4/uL | RBC [1]: 644.2 x10_4/ul | Ret [1]: 5.5% | WBC [1]: 81 x10_2/uL | KIDNEY_L [1]: 1 g | KIDNEY_R [1]: 1 g | KIDNEY_TOTAL [1]: 2 g | ALP [1]: 885.4 IU/L | ALT [1]: 42 IU/L | AST [1]: 62.2 IU/L | BUN [1]: 16.4 mg/dL | CRE [1]: 0.6 mg/dL | Ca [1]: 10.8 mg/dL | DBIL [1]: 0.012 mg/dL | IP [1]: 7.3 mg/dL | K [1]: 4.4 meq/L | Na [1]: 139.6 meq/L | PL [1]: 131.2 mg/dL | RALB [1]: 3.9 g/dL | TBIL [1]: 0.3 mg/dL | TC [1]: 81.6 mg/dL | TG [1]: 48.2 mg/dL | TP [1]: 5.6 g/dL | gamma-GTP [1]: 1.4 IU/L | TERMINAL_BW [2]: 245.2 g | TERMINAL_BW [3]: 292.4 g | TERMINAL_BW [4]: 375.8 g | Bas [2]: 0% | Eos [2]: 1% | Fbg [2]: 222.8 mg/dL | Hb [2]: 13.3 g/dL | Ht [2]: 40% | Lym [2]: 83.8% | MCHC [2]: 33.1% | Mono [2]: 7.4% | Neu [2]: 8.4% | PT [2]: 11 s | Plat [2]: 123.4 x10_4/uL | RBC [2]: 630.6 x10_4/ul | Ret [2]: 3.3% | WBC [2]: 106.6 x10_2/uL | Bas [3]: 0% | Eos [3]: 0.8% | Fbg [3]: 223.6 mg/dL | Hb [3]: 14.2 g/dL | Ht [3]: 42.5% | Lym [3]: 80% | MCHC [3]: 33.3% | Mono [3]: 5.2% | Neu [3]: 14.4% | Plat [3]: 121.2 x10_4/uL | RBC [3]: 698 x10_4/ul | Ret [3]: 6% | Bas [4]: 0% | Eos [4]: 1% | Fbg [4]: 238.8 mg/dL | Hb [4]: 15 g/dL | Ht [4]: 45.4% | Lym [4]: 83.4% | MCHC [4]: 33.1% | MCV [4]: 58.3 fL | Mono [4]: 5.2% | PT [4]: 11.8 s | Plat [4]: 116.8 x10_4/uL | RBC [4]: 778.6 x10_4/ul | Ret [4]: 2.4% | WBC [4]: 114.5 x10_2/uL | KIDNEY_L [2]: 1.1 g | KIDNEY_R [2]: 1.1 g | KIDNEY_TOTAL [2]: 2.2 g | KIDNEY_L [3]: 1.2 g | KIDNEY_R [3]: 1.2 g | KIDNEY_TOTAL [3]: 2.4 g | KIDNEY_L [4]: 1.4 g | KIDNEY_R [4]: 1.4 g | KIDNEY_TOTAL [4]: 2.7 g | LIVER [2]: 13.1 g | LIVER [3]: 14.5 g | LIVER [4]: 17.7 g | ALP [2]: 848 IU/L | ALT [2]: 38.2 IU/L | AST [2]: 67.4 IU/L | BUN [2]: 21.4 mg/dL | CRE [2]: 0.6 mg/dL | DBIL [2]: 0.012 mg/dL | IP [2]: 7.1 mg/dL | K [2]: 4.8 meq/L | LDH [2]: 124.8 IU/L | Na [2]: 141.2 meq/L | PL [2]: 140.8 mg/dL | RALB [2]: 3.9 g/dL | TBIL [2]: 0.3 mg/dL | TC [2]: 74.6 mg/dL | TG [2]: 78.8 mg/dL | TP [2]: 5.8 g/dL | gamma-GTP [2]: 0.8 IU/L | ALP [3]: 763.4 IU/L | ALT [3]: 37.6 IU/L | AST [3]: 67 IU/L | BUN [3]: 20.6 mg/dL | CRE [3]: 0.6 mg/dL | Ca [3]: 11 mg/dL | DBIL [3]: 0.01 mg/dL | IP [3]: 7.2 mg/dL | K [3]: 4.3 meq/L | LDH [3]: 110.6 IU/L | Na [3]: 140.4 meq/L | PL [3]: 150.4 mg/dL | RALB [3]: 4 g/dL | TBIL [3]: 0.4 mg/dL | TC [3]: 76.2 mg/dL | TG [3]: 119.6 mg/dL | TP [3]: 5.9 g/dL | gamma-GTP [3]: 1.2 IU/L | ALP [4]: 716 IU/L | ALT [4]: 36.6 IU/L | AST [4]: 59.4 IU/L | BUN [4]: 19.8 mg/dL | CRE [4]: 0.7 mg/dL | Ca [4]: 10.9 mg/dL | DBIL [4]: 0.016 mg/dL | IP [4]: 6.4 mg/dL | K [4]: 4.2 meq/L | LDH [4]: 107.8 IU/L | Na [4]: 142.6 meq/L | PL [4]: 139.6 mg/dL | RALB [4]: 4 g/dL | TBIL [4]: 0.3 mg/dL | TC [4]: 71.4 mg/dL | TG [4]: 128.2 mg/dL | TP [4]: 6.2 g/dL | gamma-GTP [4]: 2.2 IU/L | TERMINAL_BW [5]: 181.9 g | Bas [5]: 0% | Eos [5]: 1% | Fbg [5]: 202.2 mg/dL | Hb [5]: 15.1 g/dL | Ht [5]: 45.5% | Lym [5]: 72.4% | MCHC [5]: 33.3% | Mono [5]: 5.8% | Neu [5]: 20.6% | PT [5]: 15.6 s | Plat [5]: 126.8 x10_4/uL | RBC [5]: 699.4 x10_4/ul | Ret [5]: 2.6% | WBC [5]: 96.5 x10_2/uL | KIDNEY_L [5]: 0.9 g | KIDNEY_R [5]: 0.9 g | KIDNEY_TOTAL [5]: 1.8 g | LIVER [5]: 9.1 g | ALP [5]: 613.8 IU/L | ALT [5]: 173.4 IU/L | AST [5]: 134 IU/L | BUN [5]: 15 mg/dL | CRE [5]: 0.5 mg/dL | Ca [5]: 10 mg/dL | DBIL [5]: 0.012 mg/dL | IP [5]: 6.9 mg/dL | K [5]: 5 meq/L | LDH [5]: 155.8 IU/L | Na [5]: 137.2 meq/L | PL [5]: 82.2 mg/dL | RALB [5]: 4 g/dL | TBIL [5]: 0.4 mg/dL | TC [5]: 51.4 mg/dL | TG [5]: 17.6 mg/dL | TP [5]: 5.3 g/dL | gamma-GTP [5]: 1.6 IU/L | TERMINAL_BW [6]: 208 g | TERMINAL_BW [7]: 268.6 g | TERMINAL_BW [8]: 365.2 g | Bas [6]: 0% | Eos [6]: 1% | Fbg [6]: 212.2 mg/dL | Hb [6]: 13.7 g/dL | Ht [6]: 41.7% | Lym [6]: 78% | MCHC [6]: 32.8% | Mono [6]: 7.5% | Neu [6]: 13.5% | PT [6]: 12.8 s | Plat [6]: 138.7 x10_4/uL | RBC [6]: 658.2 x10_4/ul | Ret [6]: 3.4% | WBC [6]: 98.8 x10_2/uL | Bas [7]: 0% | Eos [7]: 1% | Fbg [7]: 255.2 mg/dL | Hb [7]: 13.5 g/dL | Ht [7]: 40.7% | Lym [7]: 72.8% | MCHC [7]: 33.1% | Mono [7]: 9.5% | Neu [7]: 17.2% | PT [7]: 12.1 s | Plat [7]: 148 x10_4/uL | RBC [7]: 673.5 x10_4/ul | Ret [7]: 8.1% | WBC [7]: 114.1 x10_2/uL | Bas [8]: 0% | Eos [8]: 1% | Fbg [8]: 234.2 mg/dL | Hb [8]: 14.6 g/dL | Ht [8]: 44% | Lym [8]: 80.2% | MCHC [8]: 33.1% | MCV [8]: 58.5 fL | Mono [8]: 5.6% | Neu [8]: 13.8% | PT [8]: 13 s | Plat [8]: 130.1 x10_4/uL | RBC [8]: 753.2 x10_4/ul | Ret [8]: 3% | WBC [8]: 117.8 x10_2/uL | KIDNEY_L [6]: 1 g | KIDNEY_R [6]: 1 g | KIDNEY_TOTAL [6]: 1.9 g | KIDNEY_L [7]: 1.2 g | KIDNEY_R [7]: 1.2 g | KIDNEY_TOTAL [7]: 2.4 g | KIDNEY_L [8]: 1.3 g | KIDNEY_R [8]: 1.4 g | KIDNEY_TOTAL [8]: 2.7 g | LIVER [6]: 12.1 g | LIVER [7]: 16 g | LIVER [8]: 20.6 g | ALP [6]: 693.8 IU/L | ALT [6]: 96.2 IU/L | AST [6]: 100.2 IU/L | BUN [6]: 21 mg/dL | CRE [6]: 0.6 mg/dL | Ca [6]: 11.3 mg/dL | DBIL [6]: 0.025 mg/dL | IP [6]: 6.2 mg/dL | K [6]: 4.7 meq/L | LDH [6]: 136 IU/L | Na [6]: 141.2 meq/L | PL [6]: 116.8 mg/dL | RALB [6]: 4.1 g/dL | TBIL [6]: 0.3 mg/dL | TC [6]: 67.5 mg/dL | TG [6]: 36.8 mg/dL | TP [6]: 5.9 g/dL | gamma-GTP [6]: 1.2 IU/L | ALP [7]: 717.5 IU/L | ALT [7]: 100.5 IU/L | AST [7]: 275.8 IU/L | BUN [7]: 19.2 mg/dL | CRE [7]: 0.6 mg/dL | Ca [7]: 10.8 mg/dL | DBIL [7]: 0.0075 mg/dL | IP [7]: 6.7 mg/dL | K [7]: 4.2 meq/L | LDH [7]: 121.2 IU/L | Na [7]: 140 meq/L | PL [7]: 115 mg/dL | RALB [7]: 3.7 g/dL | TBIL [7]: 0.3 mg/dL | TC [7]: 66.5 mg/dL | TG [7]: 60.5 mg/dL | TP [7]: 5.5 g/dL | gamma-GTP [7]: 2.2 IU/L | ALP [8]: 691.8 IU/L | ALT [8]: 55 IU/L | AST [8]: 71.6 IU/L | BUN [8]: 23.6 mg/dL | CRE [8]: 0.6 mg/dL | Ca [8]: 10.9 mg/dL | DBIL [8]: 0.018 mg/dL | IP [8]: 5.6 mg/dL | K [8]: 4.4 meq/L | LDH [8]: 132 IU/L | Na [8]: 142.6 meq/L | PL [8]: 116.2 mg/dL | RALB [8]: 4.1 g/dL | TBIL [8]: 0.3 mg/dL | TC [8]: 57.6 mg/dL | TG [8]: 85.4 mg/dL | TP [8]: 6.1 g/dL | gamma-GTP [8]: 1.2 IU/L
